Results as given in patent US5188950A, “Method of preparing HIV protease inhibitors” (Merck & Co., Inc., priority 1992, dated 1993).
Values joined by “and” are separate entries in the source; they are usually repeats but may differ in a detail not shown here. Equal values may be shown once.

How the values were obtained:
HIV protease = molecular target: T1, HIV protease (Human immunodeficiency virus type 1 group M subtype B, UniProt P12497); assay: Inhibition of microbial expressed viral protease (peptide substrate cleavage, HPLC of products); assay type: biochemical; settings: estimated activities; compounds as isolated from rat liver slices; pH 5.5, 2 hours at 36° C., 283 pM protease
T1 construct: the protease expressed in Escherichia coli; made in house; host or cells: Escherichia coli
Method: Inhibition studies of the reaction of the protease expressed in Escherichia coli with a peptide substrate [Val-Ser-Gln-Asn-(betanapthyl)Ala-Pro-Ile-Val, 0.665 mg/mL at the time the reaction is initiated] were carried out. Aliquots of 40 μl of substrate in substrate buffer (60 mM Na acetate, pH 5.5, in 0.117% BSA) were combined with 10 μl aliquots of various concentrations of inhibitor. The reaction was initiated by the addition of 10 μl of 1.7 nM protease in a solution of 0.05M Na acetate, pH 5.5, in 10% glycerol, 1 mM DTT, 1 mM EDTA, and 64 μM octoxynol-9.5 to yield a final concentration of 283 pM protease. Incubation proceeded for 2 hours at 36° C. The reaction was quenched with 75 ul of 5% phosphoric acid. Products of the reaction were separated by HPLC. The extent of inhibition of the reaction was determined from the peak heights of the products.

[1] = Biotransformation of L-689,502 by rat liver slices; assay type: in vitro ADME; settings: for metabolite share of the total metabolites: rat liver slices incubated with L-689,502, pH 7.4, 37° C., % of the total metabolites
Method: L-689,502 (5.65 μmole) was incubated at pH 7.4, 37° C., with rat liver slices (1 cm wide, 200-300μ 3.7 g) in 100 ml of Williams' Medium E (composition described in Sigma commercial circular, pages 1-5, herein incorporated by reference for this purpose). A gradual increase in the metabolites in an organic extract of the medium was observed over a period of 5 hours when ~31% of .he drug was metabolized. Three of the major metabolites M1 (6.1% of the total metabolites) and M2 (6.3%) and M4 (12.1%) were characterized by ^1 H-NMR and FAB/Mass spectroscopies. Exact mass measurements, by high resolution FAB/MS, for M1 and M2 gave a molecular ion at m/z 690.375305, which computed to an empirical formula of C39 H52 N3 O8 for the protonated form. The M4 peak was also matched with a synthetic standard by HPLC, MS and NMR.

[2] = Biotransformation of L-689,502 by dog liver slices; assay type: in vitro ADME; settings: dog liver slices incubated with L-689,502; for metabolite share of the total metabolites: % of the total metabolites

IC50 (HIV protease) | metabolite share of the total metabolites [1] [%] | amount of metabolite peak (in words) ([2]; HPLC) | metabolite share of the total metabolites [2] [%] | metabolised at 5 h, 56.5 µM ([1]; over 5 hours, pH 7.4, 37° C., rat liver slices, 5.65 μmole in 100 ml Williams' Medium E, read-out: drug metabolized) [%] | Compound
~0.5 nM | 12.1 | a small amount | – | – | CC(C)(C)OC(=O)N[C@@H](Cc1ccccc1)[C@@H](O)C[C@@H](Cc1ccc(OCCN2CCOCC2=O)cc1)C(=O)N[C@H]1c2ccccc2C[C@H]1O [M4]
1.3 nM | 6.3 | – | 1.6 | – | CC(C)(C)OC(=O)N[C@@H](Cc1ccccc1)[C@@H](O)C[C@@H](Cc1ccc(OCCN2CCOCC2)cc1)C(=O)N[C@H]1c2cccc(O)c2C[C@H]1O [M2]
2.7 nM | 6.1 | – | 13.1 | – | CC(C)(C)OC(=O)N[C@@H](Cc1ccccc1)[C@@H](O)C[C@@H](Cc1ccc(OCCN2CCOCC2)cc1)C(=O)N[C@H]1c2ccccc2[C@H](O)[C@H]1O [M1]
0.93 nM and 0.95 nM | – | – | – | ~31 | CC(C)(C)OC(=O)N[C@@H](Cc1ccccc1)[C@@H](O)C[C@@H](Cc1ccc(OCCN2CCOCC2)cc1)C(=O)N[C@H]1c2ccccc2C[C@H]1O [L-689,502, N-(cis-2(R)-hydroxy-1(S)-indanyl)-5(S)-(1,1-dimethylethoxycarbonylamino)-4(S)-hydroxy-6-phenyl-2(R)-[(4-(2-(4-morpholinyl)ethoxy)phenyl)methyl]-hexanamide]
